Measured values reported in the CheMixHub viscosity set.

Assay: xn = mol fraction of the nth substance listed

CS(C)=O + Cc1ccc(C)cc1
viscosity [mPa·s], 101 kPa
Details	x1 = 0.0993	x1 = 0.2067	x1 = 0.3019	x1 = 0.4	x1 = 0.5042	x1 = 0.59	x1 = 0.6956	x1 = 0.801	x1 = 0.8963
293.15 K	0.695	0.771	0.857	0.935	1.032	1.2	1.372	1.586	1.84
303.15 K	0.612	0.676	0.744	0.828	0.913	1.027	1.167	1.339	1.557
313.15 K	0.551	0.605	0.661	0.728	0.787	0.89	1.004	1.142	1.302
323.15 K	0.49	0.555	0.582	0.636	0.705	0.768	0.861	0.971	1.1

OC1CCCCC1 + Cc1ccc(Cl)cc1
303.15 K, 101 kPa
Details	viscosity [mPa·s]
x1 = 0.1115	4.565
x1 = 0.2202	8.427
x1 = 0.3262	12.25
x1 = 0.4296	16.24
x1 = 0.5305	20.28
x1 = 0.6289	24.45
x1 = 0.725	28.53
x1 = 0.8188	32.85
x1 = 0.9105	36.99

C1CCCCCCC1 + Cc1cccc(C)c1
viscosity [mPa·s], 101 kPa
Details	x2 = 0.1149	x2 = 0.1922	x2 = 0.2902	x2 = 0.412	x2 = 0.4831	x2 = 0.6078	x2 = 0.6874	x2 = 0.7916	x2 = 0.9058
308.15 K	1.376	1.182	1.004	0.8506	0.7816	0.6836	0.64	0.5877	0.5525
313.15 K	1.266	1.085	0.9357	0.7866	0.734	0.6372	0.6046	0.5645	0.5202

CCCCCCCO + Cc1ccccc1
viscosity [mPa·s], 101 kPa
Details	298.15 K	308.15 K
x2 = 0.0525	4.969	3.846
x2 = 0.1014	4.357	3.429
x2 = 0.1518	3.776	3.068
x2 = 0.1859	3.412	2.862
x2 = 0.2489	2.873	2.456
x2 = 0.3011	2.473	2.202
x2 = 0.3504	2.153	1.942
x2 = 0.4006	1.843	1.719
x2 = 0.4494	1.63	1.542
x2 = 0.5003	1.435	1.357
x2 = 0.5486	1.245	1.223
x2 = 0.5903	1.12	1.094
x2 = 0.6493	0.965	0.967
x2 = 0.7011	0.893	0.874
x2 = 0.752	0.768	0.766
x2 = 0.8041	0.676	0.664
x2 = 0.8495	0.645	0.624
x2 = 0.9009	0.6	0.575
x2 = 0.9487	0.572	0.527

CCOC(=O)C(C)O (configuration not stated) + Cc1ccccc1
101 kPa
Details	viscosity [mPa·s]
298.15 K, x1 = 0.7999	1.695
303.15 K, x1 = 0.3	0.7345
303.15 K, x1 = 0.7	1.295
313.15 K, x1 = 0.4	0.7225

CS(C)=O + Cc1ccccc1
Details	viscosity [mPa·s]
298.15 K, 101 kPa, x1 = 0.1	0.606
298.15 K, 101 kPa, x1 = 0.2	0.675
298.15 K, 101 kPa, x1 = 0.3	0.761
298.15 K, 101 kPa, x1 = 0.4	0.867
298.15 K, 101 kPa, x1 = 0.5	0.99
298.15 K, 101 kPa, x1 = 0.6	1.122
298.15 K, 101 kPa, x1 = 0.7	1.268
298.15 K, 101 kPa, x1 = 0.8	1.452
298.15 K, 101 kPa, x1 = 0.9	1.679
298.15 K, 101.3 kPa, x1 = 0.1025	0.609
298.15 K, 101.3 kPa, x1 = 0.2029	0.671
298.15 K, 101.3 kPa, x1 = 0.3843	0.838
298.15 K, 101.3 kPa, x1 = 0.504	0.964
298.15 K, 101.3 kPa, x1 = 0.6035	1.095
298.15 K, 101.3 kPa, x1 = 0.7049	1.25
298.15 K, 101.3 kPa, x1 = 0.7997	1.43
298.15 K, 101.3 kPa, x1 = 0.9017	1.686
302.4 K, 101 kPa, x1 = 0.0908	1.087
302.4 K, 101 kPa, x1 = 0.2568	1.399
302.4 K, 101 kPa, x1 = 0.4732	1.615
302.4 K, 101 kPa, x1 = 0.5996	2.242
302.4 K, 101 kPa, x1 = 0.7139	2.506
302.4 K, 101 kPa, x1 = 0.8665	3.234
303.15 K, 101.3 kPa, x1 = 0.1025	0.574
303.15 K, 101.3 kPa, x1 = 0.2029	0.636
303.15 K, 101.3 kPa, x1 = 0.3843	0.777
303.15 K, 101.3 kPa, x1 = 0.504	0.894
303.15 K, 101.3 kPa, x1 = 0.6035	1.01
303.15 K, 101.3 kPa, x1 = 0.7049	1.149
303.15 K, 101.3 kPa, x1 = 0.7997	1.309
303.15 K, 101.3 kPa, x1 = 0.9017	1.526
308.15 K, 101 kPa, x1 = 0.1	0.537
308.15 K, 101 kPa, x1 = 0.2	0.594
308.15 K, 101 kPa, x1 = 0.3	0.664
308.15 K, 101 kPa, x1 = 0.4	0.741
308.15 K, 101 kPa, x1 = 0.5	0.833
308.15 K, 101 kPa, x1 = 0.6	0.937
308.15 K, 101 kPa, x1 = 0.7	1.065
308.15 K, 101 kPa, x1 = 0.8	1.217
308.15 K, 101 kPa, x1 = 0.9	1.407
308.15 K, 101.3 kPa, x1 = 0.1025	0.54
308.15 K, 101.3 kPa, x1 = 0.2029	0.598
308.15 K, 101.3 kPa, x1 = 0.3843	0.727
308.15 K, 101.3 kPa, x1 = 0.504	0.833
308.15 K, 101.3 kPa, x1 = 0.6035	0.963
308.15 K, 101.3 kPa, x1 = 0.7049	1.062
308.15 K, 101.3 kPa, x1 = 0.7997	1.204
308.15 K, 101.3 kPa, x1 = 0.9017	1.398
318.15 K, 101 kPa, x1 = 0.1	0.482
318.15 K, 101 kPa, x1 = 0.2	0.53
318.15 K, 101 kPa, x1 = 0.3	0.587
318.15 K, 101 kPa, x1 = 0.4	0.654
318.15 K, 101 kPa, x1 = 0.5	0.731
318.15 K, 101 kPa, x1 = 0.6	0.817
318.15 K, 101 kPa, x1 = 0.7	0.921
318.15 K, 101 kPa, x1 = 0.8	1.047
318.15 K, 101 kPa, x1 = 0.9	1.201
